# Laboratory results published in ChEMBL document CHEMBL3421553, “Design, synthesis, and biological evaluation of benzoselenazole-stilbene hybrids as multi-target-directed anti-cancer agents” (Eur J Med Chem, 2015).
# pIC50: −log10 of the molar value.
# Columns and labels:
# [1] = Antiproliferative activity against human Bel7402 cells assessed as cell viability after 48 hrs by MTT assay; assay type: functional, cell-based; conditions: Bel-7402, 48 h
# A549 = assay: Antiproliferative activity against human A549 cells assessed as cell viability after 48 hrs by MTT assay; assay type: functional, cell-based; conditions: A549, 48 h
# HeLa = assay: Antiproliferative activity against human HeLa cells assessed as cell viability after 48 hrs by MTT assay; assay type: functional, cell-based
# MCF7 = assay: Antiproliferative activity against human MCF7 cells assessed as cell viability after 48 hrs by MTT assay; assay type: functional, cell-based; conditions: MCF7, 48 h
# [2] = Aqueous solubility of the compound in phosphate buffer at pH 7.4; assay type: physicochemical
# [3] = Inhibition of rat liver TrxR assessed as increase in absorbance by DTNB assay
# [4] = Cell cycle arrest in human Bel7402 cells assessed as cells accumulation at Sub-G1 phase at 1 uM after 48 hrs by flow cytometry (reference value: 1.47%); assay type: functional, cell-based; conditions: Bel-7402
# [5] = Cell cycle arrest in human Bel7402 cells assessed as cells accumulation at G1 phase at 1 uM after 48 hrs by flow cytometry (reference value: 62.60%); assay type: functional, cell-based; conditions: Bel-7402
# [6] = Cell cycle arrest in human Bel7402 cells assessed as cells accumulation at S phase at 1 uM after 48 hrs by flow cytometry (reference value: 13.99%); assay type: functional, cell-based; conditions: Bel-7402
# [7] = Cell cycle arrest in human Bel7402 cells assessed as cells accumulation at G2/M phase at 1 uM after 48 hrs by flow cytometry (reference value: 16.61%); assay type: functional, cell-based; conditions: Bel-7402
# [8] = Cell cycle arrest in human Bel7402 cells assessed as cells accumulation at Sub-G1 phase at 0.5 uM after 48 hrs by flow cytometry (reference value: 1.47%); assay type: functional, cell-based; conditions: Bel-7402
# [9] = Cell cycle arrest in human Bel7402 cells assessed as cells accumulation at G1 phase at 0.5 uM after 48 hrs by flow cytometry (reference value: 62.60%); assay type: functional, cell-based; conditions: Bel-7402
# [10] = Cell cycle arrest in human Bel7402 cells assessed as cells accumulation at S phase at 0.5 uM after 48 hrs by flow cytometry (reference value: 13.99%); assay type: functional, cell-based; conditions: Bel-7402
# [11] = Cell cycle arrest in human Bel7402 cells assessed as cells accumulation at G2/M phase at 0.5 uM after 48 hrs by flow cytometry (reference value: 16.61%); assay type: functional, cell-based; conditions: Bel-7402
# [12] = Cell cycle arrest in human Bel7402 cells assessed as cells accumulation at Sub-G1 phase at 3 uM after 48 hrs by flow cytometry (reference value: 1.47%); assay type: functional, cell-based; conditions: Bel-7402
# [13] = Cell cycle arrest in human Bel7402 cells assessed as cells accumulation at G1 phase at 3 uM after 48 hrs by flow cytometry (reference value: 62.60%); assay type: functional, cell-based; conditions: Bel-7402
# [14] = Cell cycle arrest in human Bel7402 cells assessed as cells accumulation at S phase at 3 uM after 48 hrs by flow cytometry (reference value: 13.99%); assay type: functional, cell-based; conditions: Bel-7402
# [15] = Cell cycle arrest in human Bel7402 cells assessed as cells accumulation at G2/M phase at 3 uM after 48 hrs by flow cytometry (reference value: 16.61%); assay type: functional, cell-based; conditions: Bel-7402
# [16] = Cell cycle arrest in human Bel7402 cells assessed as cells accumulation at Sub-G1 phase at 5 uM after 48 hrs by flow cytometry (reference value: 1.47%); assay type: functional, cell-based; conditions: Bel-7402
# [17] = Cell cycle arrest in human Bel7402 cells assessed as cells accumulation at G1 phase at 5 uM after 48 hrs by flow cytometry (reference value: 62.60%); assay type: functional, cell-based; conditions: Bel-7402
# [18] = Cell cycle arrest in human Bel7402 cells assessed as cells accumulation at S phase at 5 uM after 48 hrs by flow cytometry (reference value: 13.99%); assay type: functional, cell-based; conditions: Bel-7402
# [19] = Cell cycle arrest in human Bel7402 cells assessed as cells accumulation at G2/M phase at 5 uM after 48 hrs by flow cytometry (reference value: 16.61%); assay type: functional, cell-based; conditions: Bel-7402
# Bel-7402 [20] = assay: Induction of apoptosis in human Bel7402 cells assessed as detection error cells at 1 uM after 48 hrs by flow cytometry (reference value: 0.43%); assay type: functional
# Bel-7402 [21] = assay: Induction of apoptosis in human Bel7402 cells assessed as necrotic cells at 1 uM after 48 hrs by flow cytometry (reference value: 0.19%); assay type: functional
# Bel-7402 [22] = assay: Induction of apoptosis in human Bel7402 cells assessed as apoptotic cells at 1 uM after 48 hrs by flow cytometry (reference value: 0.73%); assay type: functional
# Bel-7402 [23] = assay: Induction of apoptosis in human Bel7402 cells assessed as live cells at 1 uM after 48 hrs by flow cytometry (reference value: 98.65%); assay type: functional
# Bel-7402 [24] = assay: Induction of apoptosis in human Bel7402 cells assessed as detection error cells at 0.5 uM after 48 hrs by flow cytometry (reference value: 0.43%); assay type: functional
# Bel-7402 [25] = assay: Induction of apoptosis in human Bel7402 cells assessed as necrotic cells at 0.5 uM after 48 hrs by flow cytometry (reference value: 0.19%); assay type: functional
# Bel-7402 [26] = assay: Induction of apoptosis in human Bel7402 cells assessed as apoptotic cells at 0.5 uM after 48 hrs by flow cytometry (reference value: 0.73%); assay type: functional
# Bel-7402 [27] = assay: Induction of apoptosis in human Bel7402 cells assessed as live cells at 0.5 uM after 48 hrs by flow cytometry (reference value: 98.65%); assay type: functional
# Bel-7402 [28] = assay: Induction of apoptosis in human Bel7402 cells assessed as detection error cells at 3 uM after 48 hrs by flow cytometry (reference value: 0.43%); assay type: functional
# Bel-7402 [29] = assay: Induction of apoptosis in human Bel7402 cells assessed as necrotic cells at 3 uM after 48 hrs by flow cytometry (reference value: 0.19%); assay type: functional
# Bel-7402 [30] = assay: Induction of apoptosis in human Bel7402 cells assessed as apoptotic cells at 3 uM after 48 hrs by flow cytometry (reference value: 0.73%); assay type: functional
# Bel-7402 [31] = assay: Induction of apoptosis in human Bel7402 cells assessed as live cells at 3 uM after 48 hrs by flow cytometry (reference value: 98.65%); assay type: functional
# Bel-7402 [32] = assay: Induction of apoptosis in human Bel7402 cells assessed as detection error cells at 5 uM after 48 hrs by flow cytometry (reference value: 0.43%); assay type: functional
# Bel-7402 [33] = assay: Induction of apoptosis in human Bel7402 cells assessed as necrotic cells at 5 uM after 48 hrs by flow cytometry (reference value: 0.19%); assay type: functional
# Bel-7402 [34] = assay: Induction of apoptosis in human Bel7402 cells assessed as apoptotic cells at 5 uM after 48 hrs by flow cytometry (reference value: 0.73%); assay type: functional
# Bel-7402 [35] = assay: Induction of apoptosis in human Bel7402 cells assessed as live cells at 5 uM after 48 hrs by flow cytometry (reference value: 98.65%); assay type: functional
smiles,measurement,setting,value
COc1ccc(/C=C/c2ccc(-n3[se]c4ccccc4c3=O)cc2)cc1OC,pIC50,[1],6.00
same,pIC50,A549,5.82
same,pIC50,HeLa,5.82
same,pIC50,MCF7,5.47
same,solubility,[2],> 100 µM
same,pIC50,[3],5.51
same,Activity,[4],5.15%
same,Activity,[5],49%
same,Activity,[6],6.93%
same,Activity,[7],33.8%
same,Activity,[8],0.2%
same,Activity,[9],55.8%
same,Activity,[10],14%
same,Activity,[11],22.2%
same,Activity,[12],5.47%
same,Activity,[13],40.4%
same,Activity,[14],9.57%
same,Activity,[15],42%
same,Activity,[16],6.69%
same,Activity,[17],37%
same,Activity,[18],8.32%
same,Activity,[19],44.2%
same,Activity,Bel-7402 [20],3.45%
same,Activity,Bel-7402 [21],3.04%
same,Activity,Bel-7402 [22],13.55%
same,Activity,Bel-7402 [23],79.95%
same,Activity,Bel-7402 [24],2.22%
same,Activity,Bel-7402 [25],1.29%
same,Activity,Bel-7402 [26],6.73%
same,Activity,Bel-7402 [27],89.75%
same,Activity,Bel-7402 [28],2.39%
same,Activity,Bel-7402 [29],5.49%
same,Activity,Bel-7402 [30],36.71%
same,Activity,Bel-7402 [31],55.41%
same,Activity,Bel-7402 [32],2.95%
same,Activity,Bel-7402 [33],5.26%
same,Activity,Bel-7402 [34],53.63%
same,Activity,Bel-7402 [35],38.16%
